Assay results published in patent publication US7534891B2, “Quinoline derivatives as H3R inverse agonists” (Hoffman-La Roche Inc., priority 2004, dated 2009).

The compounds below were run against T1, histamine 3 receptor (H3R), human HR3-CHO membranes (Homo sapiens, UniProt Q9Y5N1) (assay: Competition binding assay with 3H-(R)α-methylhistamine on membranes of the human HR3-CHO cell line). Settings: displacement of 3H-(R)α-methylhistamine (1 nM), membrane of human HR3-CHO cell line; Ki calculated from IC50 by Cheng-Prusoff.
T1 construct: expressed in transfected cells; host or cells: CHO cells (HR3-CHO cell line), membrane preparation
Description: Binding Assay with ^3H-(R)α-methylhistamine
Saturation binding experiments were performed using HR3-CHO membranes prepared as described in Takahashi, K, Tokita, S., Kotani, H. (2003) J. Pharmacol. Exp. Therapeutics 307, 213-218.
An appropriate amount of membrane (60 to 80 μg protein/well) was incubated with increasing concentrations of ^3H(R)α-Methylhistamine di-hydrochloride (0.10 to 10 nM). Non specific binding was determined using a 200 fold excess of cold (R)(X-Methylhistamine dihydrobromide (500 nM final concentration). The incubation was carried out at room temperature (in deep-well plates shaking for three hours). The final volume in each well was 250 pt. The incubation was followed by rapid filtration on GF/B filters (pre-soaked with 100 W of 0.5% PEI in Tris 50 mM shaking at 200 rpm for two hours). The filtration was made using a cell-harvester and the filter plates were then washed five times with ice cold washing buffer containing 0.5 M NaCl. After harvesting, the plates were dried at 55° C. for 60 min, then we added scintillation fluid (Microscint 40, 40 microl in each well) and the amount of radioactivity on the filter was determined in Packard top-counter after shaking the plates for two hours at 200 rpm at room temperature.
Binding Buffer: 50 mM Tris-HCl pH 7.4 and 5 mM MgCl2×6H2O pH 7.4. Washing Buffer: 50 mM Tris-HCl pH 7.4 and 5 mM MgCl2x6H2O and 0.5 M NaCl pH 7.4.
Indirect measurement of affinity of H3R inverse agonists: twelve increasing concentrations (ranging from 10 μM to 0.3 nM) of the selected compounds were always tested in competition binding experiments using membrane of the human HR3-CHO cell line. An appropriate amount of protein, e.g. approximately 500 cpm binding of RAMH at Kd, were incubated for 1 hour at room temperature in 250 μl final volume in 96-well plates in presence of ^3H(R)α-Methylhistamine (1 nM final concentration=Kd). […]
All compounds were tested at a single concentration in duplicates. […] Ki's were calculated from IC50 based on Cheng-Prusoff equation (Cheng, Y, Prusoff, W H (1973) Biochem Pharmacol 22, 3099-3108).

T1 sequence (Q9Y5N1 whole entry): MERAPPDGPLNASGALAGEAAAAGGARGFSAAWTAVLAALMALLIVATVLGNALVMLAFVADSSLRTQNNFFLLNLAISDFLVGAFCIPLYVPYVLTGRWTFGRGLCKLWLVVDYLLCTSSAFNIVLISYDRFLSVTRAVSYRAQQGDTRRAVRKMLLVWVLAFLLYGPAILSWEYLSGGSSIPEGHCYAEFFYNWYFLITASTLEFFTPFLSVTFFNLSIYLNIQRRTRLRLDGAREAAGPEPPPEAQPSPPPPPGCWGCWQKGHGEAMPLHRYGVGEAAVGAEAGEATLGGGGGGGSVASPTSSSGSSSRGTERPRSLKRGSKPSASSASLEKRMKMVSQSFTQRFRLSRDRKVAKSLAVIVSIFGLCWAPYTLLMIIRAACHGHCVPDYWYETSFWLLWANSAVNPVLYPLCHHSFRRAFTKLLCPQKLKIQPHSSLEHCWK

| SMILES | Ki [nM] |
| --- | --- |
| CC(C)N1CCC(Oc2ccc3nc(C(=O)N4CCC4)ccc3c2)CC1 [Example 14, azetidine-1-yl-[6-(1-isopropyl-piperidin-4-yloxy)-quinolin-2-yl]-methanone] | 78 |
| CC(C)N1CCC(Oc2ccc3nc(C(=O)N4CC=CC4)ccc3c2)CC1 [Example 2, (2,5-dihydro-pyrrol-1-yl)-[6-(1-isopropyl-piperidin-4-yloxy)-quinolin-2-yl]-methanone] | 200 |
| O=C(c1ccc2cc(OCCCN3CCCCC3)ccc2n1)N1CCCC1 [Example 64, [6-(3-piperidin-1-yl-propoxy)-quinolin-2-yl]-pyrrolidin-1-yl-methanone] | 450 |
